Patent publication US20220133651A1, “TREATMENT OF PITT-HOPKINS SYNDROME” (HEALX LTD, priority 2019, published 2022)
“Also recorded” adds a separate entry of the source. Structures can show the parent of a compound that is named as a salt.

Legend:
[1] = cited from earlier work
[2] = tested on: Tcf4+/− mice; assay: Fear conditioning (test of learning and memory); type: in vivo, mouse; settings: chronic treatment of Tcf4+/− mice
Source text: The Tcf4+1− mouse model has been developed to mimic PTHS and therefore assess potential treatments. The mice have deficits in hippocampus-dependent learning and memory, spatial working memory, sociability, stereotypy, hyperactivity and daily living paradigms. […] Mice were purchased from The Jackson Laboratory and maintained on a C57BL/6 background. They were raised on a 12:12 light:dark cycle with ad libitum access to food and water. Controls consisted of TCF4+1+. All mice used were heterozygous for the Tcf4 mutation because homozygous mutations result in embryonic/post-partum lethality. There were four treatment groups per compound in the study with 10 male mice used per treatment group (all at 14 weeks of age): Group 1: wild-type littermate mice treated with vehicle (WT+veh); Group 2: Tcf4+/−KO mice treated with vehicle (Tcf4+1−+veh), Group 3: WT+drug; and Group 4: Tcf4+1−+drug. Tcf4+/− mice show reduced freezing in the context of clued fear conditioning test indicating hippocampus-dependent memory and learning deficiency. […] Data were analysed by two-way analysis of variance (ANOVA) followed by post-test comparisons where appropriate using Tukey's Multiple Comparison Test, Data are represented as the mean and standard error of the mean (SEM).

[3] = tested on: Tcf4+/− mice; assay: Open field (measure of hyperactivity); type: in vivo, mouse; settings: chronic treatment of Tcf4+/− mice
Source text: The Tcf4+1− mouse model has been developed to mimic PTHS and therefore assess potential treatments. The mice have deficits in hippocampus-dependent learning and memory, spatial working memory, sociability, stereotypy, hyperactivity and daily living paradigms. […] Mice were purchased from The Jackson Laboratory and maintained on a C57BL/6 background. They were raised on a 12:12 light:dark cycle with ad libitum access to food and water. Controls consisted of TCF4+1+. All mice used were heterozygous for the Tcf4 mutation because homozygous mutations result in embryonic/post-partum lethality. There were four treatment groups per compound in the study with 10 male mice used per treatment group (all at 14 weeks of age): Group 1: wild-type littermate mice treated with vehicle (WT+veh); Group 2: Tcf4+/−KO mice treated with vehicle (Tcf4+1−+veh), Group 3: WT+drug; and Group 4: Tcf4+1−+drug. The open-field apparatus was used to test hyperactivity. […] The number of squares entered by the whole body (locomotor activity) was counted. The movement of the mouse around the field was recorded with a video tracking device for 3 min (version NT4.0, Viewpoint). Data were analysed by two-way analysis of variance (ANOVA) followed by post-test comparisons where appropriate using Tukey's Multiple Comparison Test, Data are represented as the mean and standard error of the mean (SEM).

[4] = tested on: Tcf4+/− mice; assay: Nesting (test of daily living); type: in vivo, mouse; settings: chronic treatment of Tcf4+/− mice
Source text: The Tcf4+1− mouse model has been developed to mimic PTHS and therefore assess potential treatments. The mice have deficits in hippocampus-dependent learning and memory, spatial working memory, sociability, stereotypy, hyperactivity and daily living paradigms. […] Mice were purchased from The Jackson Laboratory and maintained on a C57BL/6 background. They were raised on a 12:12 light:dark cycle with ad libitum access to food and water. Controls consisted of TCF4+1+. All mice used were heterozygous for the Tcf4 mutation because homozygous mutations result in embryonic/post-partum lethality. There were four treatment groups per compound in the study with 10 male mice used per treatment group (all at 14 weeks of age): Group 1: wild-type littermate mice treated with vehicle (WT+veh); Group 2: Tcf4+/−KO mice treated with vehicle (Tcf4+1−+veh), Group 3: WT+drug; and Group 4: Tcf4+1−+drug. The test was performed in individual cages. Normal bedding covered the floor to a depth of 0.5 cm. […] Mice were placed individually into the nesting cages 1 hr. before the dark phase, and the results were assessed the next morning. Nest building was scored on a 5 point scale. […] Data were analysed by two-way analysis of variance (ANOVA) followed by post-test comparisons where appropriate using Tukey's Multiple Comparison Test, Data are represented as the mean and standard error of the mean (SEM).

[5] = tested on: Tcf4+/− mice; assay: Self-grooming (assessment of stereotypy); type: in vivo, mouse; settings: chronic treatment of Tcf4+/− mice
Source text: The Tcf4+1− mouse model has been developed to mimic PTHS and therefore assess potential treatments. The mice have deficits in hippocampus-dependent learning and memory, spatial working memory, sociability, stereotypy, hyperactivity and daily living paradigms. […] Mice were purchased from The Jackson Laboratory and maintained on a C57BL/6 background. They were raised on a 12:12 light:dark cycle with ad libitum access to food and water. Controls consisted of TCF4+1+. All mice used were heterozygous for the Tcf4 mutation because homozygous mutations result in embryonic/post-partum lethality. There were four treatment groups per compound in the study with 10 male mice used per treatment group (all at 14 weeks of age): Group 1: wild-type littermate mice treated with vehicle (WT+veh); Group 2: Tcf4+/−KO mice treated with vehicle (Tcf4+1−+veh), Group 3: WT+drug; and Group 4: Tcf4+1−+drug. […] Usually in a sitting position, the mouse will lick its fur, groom with the forepaws, or scratch with any limb. Often the mouse will mix all of these grooming behaviors. […] Data were analysed by two-way analysis of variance (ANOVA) followed by post-test comparisons where appropriate using Tukey's Multiple Comparison Test, Data are represented as the mean and standard error of the mean (SEM).

[6] = tested on: Tcf4+/− mice; assay: Sociability/Partition test (assessment of social anxiety); type: in vivo, mouse; settings: chronic treatment of Tcf4+/− mice
Source text: The Tcf4+1- mouse model has been developed to mimic PTHS and therefore assess potential treatments. The mice have deficits in hippocampus-dependent learning and memory, spatial working memory, sociability, stereotypy, hyperactivity and daily living paradigms. […] Mice were purchased from The Jackson Laboratory and maintained on a C57BL/6 background. They were raised on a 12:12 light:dark cycle with ad libitum access to food and water. Controls consisted of TCF4+1+. All mice used were heterozygous for the Tcf4 mutation because homozygous mutations result in embryonic/post-partum lethality. There were four treatment groups per compound in the study with 10 male mice used per treatment group (all at 14 weeks of age): Group 1: wild-type littermate mice treated with vehicle (WT+veh); Group 2: Tcf4+/-KO mice treated with vehicle (Tcf4+1-+veh), Group 3: WT+drug; and Group 4: Tcf4+1-+drug. In the three-chambered sociability task, a subject mouse was evaluated for its exploration of a novel social stimulus (novel mouse). […] The time spent exploring the novel mice was scored as exploration ratio. Data were analysed by two-way analysis of variance (ANOVA) followed by post-test comparisons where appropriate using Tukey's Multiple Comparison Test, Data are represented as the mean and standard error of the mean (SEM).

[7] = tested on: Tcf4+/− mice; assay: Test of Force (hind limb grip strength); type: in vivo, mouse; settings: chronic treatment of Tcf4+/− mice
Source text: The Tcf4+1− mouse model has been developed to mimic PTHS and therefore assess potential treatments. The mice have deficits in hippocampus-dependent learning and memory, spatial working memory, sociability, stereotypy, hyperactivity and daily living paradigms. […] Mice were purchased from The Jackson Laboratory and maintained on a C57BL/6 background. They were raised on a 12:12 light:dark cycle with ad libitum access to food and water. Controls consisted of TCF4+1+. All mice used were heterozygous for the Tcf4 mutation because homozygous mutations result in embryonic/post-partum lethality. There were four treatment groups per compound in the study with 10 male mice used per treatment group (all at 14 weeks of age): Group 1: wild-type littermate mice treated with vehicle (WT+veh); Group 2: Tcf4+/−KO mice treated with vehicle (Tcf4+1−+veh), Group 3: WT+drug; and Group 4: Tcf4+1−+drug. Tcf4+/− mice show a significant deficit in hindlimb strength (not forelimb) when compared with WT mice. Neuromuscular function of the hindlimbs was tested with a grip strength meter (San Diego Instruments). […] The force applied to the grid at the moment the grasp was released was recorded. Data were analysed by two-way analysis of variance (ANOVA) followed by post-test comparisons where appropriate using Tukey's Multiple Comparison Test, Data are represented as the mean and standard error of the mean (SEM).

[8] = tested on: Tcf4+/− mice; assay: Dose response experiments in behavioural tests (Study 2); type: in vivo, mouse
Experimental: Dose response experiments were conducted following the protocol described above. Amitriptyline rescued all the behavioral tests at 5 and 10 mg/kg.

| Compound | solubility in water [1] | fear conditioning (learning and memory) [2] | open field (hyperactivity) [3] | nesting (tests of daily living) [4] | self-grooming (stereotypy) [5] | sociability (social anxiety) [6] | test of force (strength) [7] | all the behavioral tests (dose response) ([8]; 5 mg/kg) | all the behavioral tests (dose response) ([8]; 10 mg/kg) |
| --- | --- | --- | --- | --- | --- | --- | --- | --- | --- |
| CN(C)CCC=C1c2ccccc2CCc2ccccc21 [amitriptyline HCL, 3-(10,11-dihydro-5H-dibenzo [ad]cycloheptene-5-ylidene)-N,N-dimethyl-1-propanamine hydrochloride] | freely soluble | – | – | – | – | – | – | – | – |
| CN(C)CCC=C1c2ccccc2CCc2ccccc21 [amitriptyline] | – | significantly improved; also recorded: rescuing | significantly improved; also recorded: rescuing | significantly improved; also recorded: rescuing | significantly improved; also recorded: rescuing | significantly improved; also recorded: rescuing | significantly improved; also recorded: rescuing | rescued | rescued |
